From ChEMBL document CHEMBL1157865, “Synthesis and evaluation of SQ109 analogues as potential anti-tuberculosis candidates” (2010)
In brackets after ≈: the same amount, converted by molar mass.

These compounds were tested on Mycobacterium tuberculosis (assay: Antimycobacterial activity against multidrug-resistant Mycobacterium tuberculosis XDR 173 by BACTEC 460 radiometric method).
Format: functional

Point of comparison: CC(C)CCCC(C)CCCC(C)CCNCCNC1C2CC3CC(C2)CC1C3 (centres undefined), MIC 1 µM (≈ 0.405 µg/mL). Against it:
- CC(C)=CCC/C(C)=C/CC/C(C)=C/CNCCNC1C2CC3CC(C2)CC1C3 (centres undefined) — 4-fold lower, 0.25 µM (≈ 0.0997 µg/mL)
- CC(C)CCCC(C)CCNCCNC12CC3CC(CC(C3)C1)C2 (centres undefined) — 2-fold lower, 0.5 µM (≈ 0.167 µg/mL)
- CC(C)=CCC/C(C)=C/CNCCNC1C2CC3CC(C2)CC1C3 (centres undefined) [SQ109] — 2-fold lower, 0.5 µM (≈ 0.165 µg/mL)
